Here are results for eight compounds from DBAASP.

Holding throughout (experiment): ≥ marks a high value that may be exact or a test limit, other limits are often not marked, values filed in µg/mL are converted to µM
The test system of assay [1] is Escherichia coli BL21.
Assay [2] deals with Pseudomonas aeruginosa PAO1.
For assay [3], the system named is Streptococcus pyogenes M1T1 5448.
Assay [4] deals with Escherichia coli ATCC 25922.
Assay [5] has as its system Pseudomonas aeruginosa.
The subject of assay [6] is Bacillus cereus.
Assay [7] concerns Acinetobacter calcoaceticus.
The subject of assay [8] is Shigella dysenteriae.
Assay [9] relates to Bacillus pumilus.
Assay [10] deals with Staphylococcus aureus ATCC 2592.
The subject of assay [11] is Candida albicans ATCC 2002.
The subject of assay [12] is Lactococcus lactis.
Assay [13] concerns Staphylococcus aureus AS1.72.
Assay [14] deals with Candida albicans.
Assay [15] has as its system Escherichia coli AS1.349.
For assay [16], the system named is Pseudomonas aeruginosa 213.
Assay [17] has as its system Staphylococcus aureus C623.
The subject of assay [18] is Staphylococcus aureus ATCC 25923.
Assay [19] deals with Pseudomonas aeruginosa H103.
In assay [20] the test system is Escherichia coli ESBL 63103.
The subject of assay [21] is Pseudomonas aeruginosa LES400.
In assay [22] the test system is Candida albicans C627.
In assay [23] the test system is Enterococcus faecium mic80.
For assay [24], the system named is Enterococcus faecalis CGMCC 1.595.
For assay [25], the system named is Pseudomonas aeruginosa CGMCC 1.860.
Assay [26] concerns Bacillus cereus AS1.126.
Assay [27] concerns Lactococcus lactis AS1.1690.
Assay [28] relates to Enterococcus faecium CGMCC 1.2334.

≈ marks a conversion by molar mass, not a printed value. A value given as a limit tells only on which side of the number the result lay.

For the compound `CC[C@H](C)[C@H](NC(=O)[C@H](CCCCN)NC(=O)[C@H](C)NC(=O)[C@H](CCCN=C(N)N)NC(=O)[C@H](CCCCN)NC(=O)CNC(=O)[C@H](CCCCN)NC(=O)[C@H](CCC(=O)O)NC(=O)[C@H](CCC(N)=O)NC(=O)[C@@H](NC(=O)[C@@H](NC(=O)[C@H](CCCCN)NC(=O)[C@H](CCCCN)NC(=O)[C@H](CC(C)C)NC(=O)[C@H](Cc1ccccc1)NC(=O)[C@H](CCC(N)=O)NC(=O)[C@H](CCCN=C(N)N)NC(=O)[C@@H](NC(=O)[C@@H](NC(=O)[C@H](CCC(=O)O)NC(=O)[C@H](CCCCN)NC(=O)CNC(=O)[C@H](C)N)[C@@H](C)O)[C@@H](C)CC)[C@@H](C)O)[C@@H](C)CC)C(=O)N[C@@H](Cc1c[nH]c2ccccc12)C(=O)N[C@@H](Cc1c[nH]c2ccccc12)C(=O)O` [AGKETIRQFLKKTIQEKGKRAKIWW], the minimum inhibitory concentration (MIC) in assay [1] came out at 2 µM (≈ 6.09 µg/mL); in [2], 32 µM (≈ 97.4 µg/mL); in assay [3], 0.125 µM (≈ 0.381 µg/mL).
For `CC[C@H](C)[C@H](NC(=O)[C@H](Cc1ccccc1)NC(=O)[C@H](C)NC(=O)[C@H](CCCCN)NC(=O)[C@H](CCCCN)NC(=O)CNC(=O)[C@H](CCCN=C(N)N)NC(=O)[C@H](CCCCN)NC(=O)[C@H](CCCN=C(N)N)NC(=O)[C@H](CC(C)C)NC(=O)[C@H](CCC(=O)O)NC(=O)[C@H](CCC(=O)O)NC(=O)[C@H](CC(C)C)NC(=O)[C@H](CC(C)C)NC(=O)[C@H](Cc1ccc(O)cc1)NC(=O)[C@H](CCCCN)NC(=O)[C@@H](NC(=O)[C@H](CC(C)C)NC(=O)[C@H](C)NC(=O)[C@H](CCC(N)=O)NC(=O)[C@H](CCCN=C(N)N)NC(=O)CNC(=O)[C@H](C)N)[C@@H](C)O)C(=O)N[C@@H](Cc1c[nH]c2ccccc12)C(=O)N[C@@H](Cc1c[nH]c2ccccc12)C(=O)O` [AGRQALTKYLLEELRKRGKKAFIWW], in that order: 4 µM (≈ 12.3 µg/mL), over 128 µM and 2 µM (≈ 6.13 µg/mL).
Taken in the same sequence, the figures for `CC[C@H](C)[C@H](NC(=O)[C@H](Cc1c[nH]c2ccccc12)NC(=O)[C@H](CCC(N)=O)NC(=O)[C@H](CCCN=C(N)N)NC(=O)CNC(=O)[C@H](C)N)C(=O)N[C@@H](CCCCN)C(=O)N[C@@H](C)C(=O)N[C@@H](Cc1ccc(O)cc1)C(=O)N[C@@H](CC(C)C)C(=O)N[C@@H](CCCN=C(N)N)C(=O)N[C@@H](CCCN=C(N)N)C(=O)N[C@@H](CCC(=O)O)C(=O)N[C@H](C(=O)N[C@@H](CCCN=C(N)N)C(=O)N[C@@H](CCCCN)C(=O)N[C@@H](CCCN=C(N)N)C(=O)NCC(=O)N[C@@H](CCCN=C(N)N)C(=O)N[C@@H](CCCCN)C(=O)N[C@@H](C)C(=O)N[C@H](C(=O)N[C@H](C(=O)N[C@@H](C)C(=O)N[C@@H](Cc1c[nH]c2ccccc12)C(=O)O)[C@@H](C)CC)C(C)C)[C@@H](C)CC` [AGRQWIKAYLRREIRKRGRKAVIAW] were 2 µM (≈ 6.17 µg/mL), 16 µM (≈ 49.3 µg/mL) and 2 µM (≈ 6.17 µg/mL).
In the case of `CC[C@H](C)[C@H](NC(=O)[C@@H]1CCCN1C(=O)[C@H](Cc1ccccc1)NC(=O)[C@@H](N)Cc1ccccc1)C(=O)N[C@H](C(=O)NCC(=O)N[C@@H](CCCCN)C(=O)N[C@@H](CC(C)C)C(=O)N[C@@H](CC(C)C)C(=O)N[C@@H](CO)C(=O)NCC(=O)N[C@@H](CC(C)C)C(=O)N[C@@H](CO)C(=O)NCC(=O)N[C@@H](CC(C)C)C(=O)N[C@@H](CC(C)C)C(N)=O)C(C)C` [FFPIVGKLLSGLSGLL], the MIC in assay [4] is 1.51 µM (≈ 2.5 µg/mL); in assay [5], 3.01 µM (≈ 5 µg/mL); in assay [6], 18.1 µM (≈ 30 µg/mL); in assay [7], 18.1 µM (≈ 30 µg/mL); in assay [8] it was 3.01 µM (≈ 5 µg/mL); in assay [9], 3.01 µM (≈ 5 µg/mL). Further, the MIC in assay [10] and in [11] was 1.51 µM (≈ 2.5 µg/mL) throughout.
For `CC(C)C[C@H](NC(=O)[C@H](CC(C)C)NC(=O)CNC(=O)[C@H](Cc1ccccc1)NC(=O)[C@H](CCCN=C(N)N)NC(=O)[C@H](CC(C)C)NC(=O)[C@H](CCCCN)NC(=O)[C@H](CCCCN)NC(=O)[C@H](CC(C)C)NC(=O)[C@@H]1CCCN1C(=O)[C@H](CC(C)C)NC(=O)[C@@H](N)Cc1ccccc1)C(N)=O` [FLPLKKLRFGLL], the MIC in [12] worked out at 3.13 µM (≈ 4.52 µg/mL); in [5], 12.5 µM (≈ 18 µg/mL); in assay [13], 3.13 µM (≈ 4.52 µg/mL); in [6] it was 3.13 µM (≈ 4.52 µg/mL); in assay [14], 6.25 µM (≈ 9.02 µg/mL); in assay [15] it was 12.5 µM (≈ 18 µg/mL).
Turning to `CC[C@H](C)[C@H](NC(=O)CN)C(=O)N[C@@H](Cc1ccccc1)C(=O)N[C@@H](CO)C(=O)N[C@@H](CC(C)C)C(=O)N[C@H](C(=O)N[C@@H](CCCCN)C(=O)N[C@H](C(=O)N[C@@H](C)C(=O)N[C@@H](C)C(=O)N[C@@H](CCCCN)C(=O)N[C@@H](Cc1ccccc1)C(=O)N[C@H](C(=O)NCC(=O)N[C@@H](CCCCN)C(=O)N[C@@H](CC(N)=O)C(=O)N[C@@H](CC(C)C)C(=O)N[C@@H](CC(C)C)C(=O)N[C@@H](CCCCN)C(=O)N[C@@H](CCC(N)=O)C(=O)N[C@@H](C)C(=O)NCC(=O)N[C@@H](CCCCN)C(=O)N[C@@H](C)C(=O)NCC(=O)N[C@H](C(=O)N[C@@H](CCC(=O)O)C(=O)N[C@@H](Cc1cnc[nH]1)C(=O)N[C@@H](CC(C)C)C(=O)N[C@@H](C)C(=O)N[C@H]1CSSC[C@@H](C(=O)O)NC(=O)[C@H](CCC(N)=O)NC(=O)[C@H](CC(N)=O)NC(=O)[C@H](CC(N)=O)NC(=O)[C@H](C)NC(=O)[C@H](CCCCN)NC1=O)C(C)C)C(C)C)[C@@H](C)O)[C@@H](C)CC` [GIFSLIKTAAKFVGKNLLKQAGKAGVEHLACKANNQC], the MIC in [4] is 3.23 µM (≈ 12.5 µg/mL); in assay [5] it was 12.9 µM (≈ 50 µg/mL); in [6], 1.94 µM (≈ 7.5 µg/mL); in assay [7], 3.23 µM (≈ 12.5 µg/mL); in assay [8], 1.94 µM (≈ 7.5 µg/mL); in assay [9] it was 0.646 µM (≈ 2.5 µg/mL). Further, the figures for the minimal inhibitory concentration (MIC) in [10] and in assay [11] were 0.323 µM (≈ 1.25 µg/mL) and 0.646 µM (≈ 2.5 µg/mL), respectively.
As for `CC[C@H](C)[C@H](NC(=O)[C@H](CCCCN)NC(=O)[C@H](Cc1c[nH]c2ccccc12)NC(=O)[C@@H](NC(=O)[C@@H](N)CCCN=C(N)N)[C@@H](C)CC)C(=O)N[C@@H](Cc1c[nH]c2ccccc12)C(=O)N[C@@H](Cc1c[nH]c2ccccc12)C(=O)N[C@@H](CCCCN)C(=O)N[C@@H](CCCN=C(N)N)C(=O)O` [RIWKIWWKR], the MIC in assay [16] is at least 93.3 µM; in assay [17] it was at least 46.7 µM; in assay [18], 93.3 µM (≈ 128 µg/mL); in assay [19], at least 46.7 µM; in assay [20], at least 46.7 µM; in assay [21] it was at least 93.3 µM. Also, the MIC stood at 5.83 µM (≈ 8 µg/mL) in assay [22] and 23.3 µM (≈ 32 µg/mL) in assay [23].
In the case of `CC(C)[C@H](N)C(=O)N[C@@H](Cc1c[nH]c2ccccc12)C(=O)N[C@@H](CCCN=C(N)N)C(=O)N[C@@H](CCCCN)C(=O)N[C@@H](Cc1c[nH]c2ccccc12)C(=O)N[C@@H](CCCN=C(N)N)C(=O)N[C@@H](CCCN=C(N)N)C(=O)N[C@@H](Cc1ccccc1)C(=O)N[C@@H](Cc1c[nH]c2ccccc12)C(=O)N[C@@H](CCCCN)C(=O)N[C@@H](CCCN=C(N)N)C(=O)O` [VWRKWRRFWKR], the MIC in [24] was found to be 6.25 µM (≈ 10.7 µg/mL); in assay [25] it was 1.56 µM (≈ 2.66 µg/mL); in assay [13], 6.25 µM (≈ 10.7 µg/mL); in assay [26], 3.13 µM (≈ 5.33 µg/mL); in assay [27], 6.25 µM (≈ 10.7 µg/mL); in [15] it was 3.13 µM (≈ 5.33 µg/mL). The same compound gave an MIC in assay [28] of 6.25 µM (≈ 10.7 µg/mL).
